In assay [1] the test system is juxtaglomerular (JG) cells. The assay can be described thus: Renin mRNA expression in cultured JG cells treated with prostanoid agonists (real time RT-PCR). It counts as cell-based, mouse. On the procedure: Culture of Juxtaglomerular (JG) cells: JG cells were prepared as described (Fujino et al., 2004, J Clin Invest. 114: 805-812). The kidneys were removed, decapsulated, minced with a surgical blade, incubated with 0.1% collagenase for 15 minutes at 37° C. and filtered through a 40 μm nylon mesh. The filtered cells were placed on 15 ml of 30% isosmotic Percoll solution (Amersham Biosciences) and centrifuged at 27,000 g for 20 minutes at 4° C. The cell layer near the surface, enriched with JG cells, was collected and washed. […] The resulting cDNA (40 ng) was used for quantitative real time PCR. Quantitative real time PCR Analysis of Gene Expression: TaqMan gene expression assays (Applied Biosystems, Foster City, Calif.; catalog No. 4331182) for FP (Mm004360055_m1), RENIN (Mm02342889_g1), TNFα (Mm00443258_m1), IL-1β (Mm00434228_m1), IL-12β (Mm01351787_m1), IL-4 (Mm00445259_m1,) IL-6 (Mm00446190_m1), IL-18 (Mm00434225_m1), iNOS (Mm01309902_m1), TGFβ (Mm00441724_m1), INFγ (Mm00801778_m1), IL-10 (Mm00439616_m1) were performed on an ABI Prism 7900 Sequence Detection System. […] An prostanoid agonist was administered as different concentrations and the expression of renin was monitored using real time RT-PCR. […]

A further assay concerns JG cells. Briefly: cAMP content in cultured cells rich in JG cells. It counts as cell-based, mouse. The conditions noted are these: vs vehicle controls. An excerpt: (§1) FIGS. 5A-5E depict data related to renin expression resulting from activation of FP or prostacyclin (IP) receptor in in vitro cultures of juxtaglomerular apparatus cells obtained from WT or FP knockout mice. FIG. 5A is a graph depicting the effect of FP agonists Latanoprost (Lata) and Travoprost (Trav), and IP agonist Cicaprost (Cica) on renin mRNA expression in JG enriched cultured cells. Each point represents mean±SEMs of 4 cell groups, repeated 3 times. FIG. 5B is a bar graph illustrating the effect of effect of Latanoprost and Cicaprost on cAMP content in cultured cells rich in JG cells. Data are presented as cAMP fold change from 3-6 independent samples (6-well plate) from 3 independent experiments. *, p<0.05 vs vehicle controls, n=3. FIG. 5C is a graph of the original recording of membrance capacitance in a single mouse JG cell from WT mice. […] FIG. 5E is a graph of whole cell currents were measured in response to 11 pulses from −150 to +90 mV in 30-mV steps for 200 ms from a holding potential of −30 mV. Pulses were applied before and after superfusion with 1 μM Latanoprost. Mean steady-state current-voltage curves from 4 independent experiments before (cycle) and after (square) 20 min of capacitance measurements are given.
Culture of Juxtaglomerular (JG) cells: JG cells were prepared as described (Fujino et al., 2004, J Clin Invest. 114: 805-812). […]

In the next assay the test system is single WT JG cells. The assay can be described thus: Patch-clamp membrane capacitance of single JG cells. The conditions noted are these: single WT JG cells in vitro, 1 μM Latanoprost. It counts as cell-based, mouse.
Excerpt: as §1

In a further assay the test system is renin secretion. The conditions noted are these: Jensen et al., 1996; Fujino et al., 2004; cited from earlier work.
The subject of the next assay is WT and FP knockout mice. The assay can be described thus: Mean arterial blood pressure after bolus of Ang II. The conditions noted are these: 50 ng/kg, acute intracarotid infusion, n=7. In kind it is in vivo, mouse. On the procedure: FIGS. 3A-3C depicts data related to angiotensin II receptor (AT1) expression and blood pressure effects of Ang II injection in WT and FP knockout mice. FIG. 3A depicts AT1a and FIG. 3B depicts AT1b gene expression in aorta by real time RT-PCR. *p<0.01 (n=4) versus WT, repeated 3 times. FIG. 3C depicts blood pressure (BP) after Angiotengin II (Ang II) administration (50 ng/kg) compared with baseline in FP^−/− and WT littermates. Mean arterial BP was monitored in mice by pressure transducer connected to a catheter in left artery. Baseline BP is readout before injection. BP changes are depicted as difference between baseline and after injection at one min intervals. *p<0.01 versus WT, n=8-9.
Mean Arterial Blood Pressure (BP) Measurements: The right internal jugular vein and left carotid artery of anesthetized mice were cannulated with PE-10 tubing. The arterial catheter was connected to a Capto SP844 pressure transducer, and BP was monitored continuously with a PowerLab/8SP system. […]
To examine the acute effect of Ang II on blood pressure, WT and FPKO mice were sedated and subjected to a bolus infusion of Ang II. Blood pressure was measured directly using an arterial catheter connected to a pressure transducer. After the equilibration period and the baseline BP was recorded, mice were injected with a bolus of Ang II.

The next assay deals with WT and FPKO mice. Briefly: Mean arterial blood pressure after PGF2α administration. In kind it is in vivo, mouse. On the procedure:
Mean Arterial Blood Pressure (BP) Measurements: The right internal jugular vein and left carotid artery of anesthetized mice were cannulated with PE-10 tubing. The arterial catheter was connected to a Capto SP844 pressure transducer, and BP was monitored continuously with a PowerLab/8SP system. Mice were injected via the right internal jugular vein with […] or PGF2α administration to exclude volume-mediated BP changes.
Given that the lacZ gene was knocked into the endogenous FP receptor locus in the FP targeting allele, the receptor expression pattern was monitored by mapping β-galactosidase (β-gal) activity. Scattered activity of β-gal was detectable in the medial smooth muscle layer of renal small arteries in FP^+/− mice (FIG. 6A), but was not evident in FP^+/− mouse aorta nor in the atherosclerotic lesions of Ldlr^−/−/FP^−/− mice (FIGS. 6B-6G). To assess the systemic effect of PGF2α, WT and FPKO mice were sedated in order to measure blood pressure directly in the heart. PGF2α was administered and blood pressure was monitored. Once blood pressure returned to baseline, the next dose of PGF2α was administered (FIG. 6H). Four doses of PGF2α were tested: 10 μg/kg body weight, 30 μg/kg, 90 μg/kg and […].

The values that follow come from patent publication US20110172308A1, “Antagonsim of PGF2a Receptor to Treat Hyertension Characterized by Activation of the Renin-Angiotensin-Aldosterone System” (The Trustees of The University of Pennsylvania, priority 2008, published 2011).

“Also recorded” adds a separate entry of the source.

As for `CCC#CC[C@H](C)[C@H](O)C#C[C@@H]1[C@H]2C/C(=C/COCC(=O)O)C[C@H]2C[C@H]1O` [Cicaprost], in assay [1] (JG cells from FPKO mice, 20 hours incubation, various concentrations), the “expression of renin in JG cells from FPKO mice” value was “stimulated”. For the same molecule, the “effects as a renin secretagogue, WT compared with FP−/− mice” value in assay [1] (JG cells from WT vs FP−/− mice) is on record as “similar”. In addition, the “JG cell cAMP” value in the assay on JG cells is listed as “increase”.

Regarding `CC(C)OC(=O)CCC/C=C\C[C@@H]1[C@@H](CC[C@@H](O)CCc2ccccc2)[C@H](O)C[C@@H]1O` [Latanoprost], the “JG cell cAMP” value in the assay with JG cells is recorded as “failed to increase”. Also, the “change in membrane capacitance” value in the assay on single WT JG cells is reported as “no change”.

In the case of `CCCCC[C@H](O)/C=C/[C@H]1[C@H](O)CC(=O)[C@@H]1C/C=C\CCCC(=O)O` [PGE2], the renin secretagogue activity result with renin secretion is on record as “potent renin secretagogues”.

Take `CCCCC[C@H](O)/C=C/[C@@H]1[C@H]2C/C(=C/CCCC(=O)O)O[C@H]2C[C@H]1O` [Prostacyclin (PGI2), Prostacyclin]: the renin secretagogue activity entry in the assay with renin secretion is given as “potent renin secretagogues”.

For the molecule “angiotensin II (DRVYIHPF; Angiotensin-2; UniProt P01019 25-32, looked up) [Ang II, Ang II peptide, a powerful vasoconstrictor]”, the “hypertensive response to acute infusion of Ang II in FP KO mice” value with WT and FP knockout mice (FP KO mice) came to 37.5±5.6. Besides, the “hypertensive response to acute infusion of Ang II in WT controls” value in the assay on WT and FP knockout mice (WT controls) is reported as 20.3±4.7.

With prostaglandin F2α [PGF2α], the “blood pressure after PGF2α administration in FPKO mice” value in the assay with WT and FPKO mice (FPKO mice, 10, 30, 90, 270 μg/kg) is listed as “not”. For the same molecule, in the assay with WT and FPKO mice (FP−/− mice, highest rate of infusion), the “blood pressure in FP−/− mice at the highest rate of infusion” value is “rise in blood pressure”. Further, the “blood pressure after PGF2α administration in WT mice” value with WT and FPKO mice (WT mice, 10, 30, 90, 270 μg/kg) is listed as “increased; also recorded: dose dependent”. The renin secretagogue activity entry in the assay on renin secretion is on record as “not”.
